Assay results taken from publication PMC4168900, “Expeditive synthesis of trithiotriazine-cored glycoclusters and inhibition of Pseudomonas aeruginosa biofilm formation” (Beilstein Journal of Organic Chemistry, 2014).

Tests used:
PAO1 biofilm = experiment: P. aeruginosa adherence / biofilm formation assay, crystal violet staining; format: cell-based, Pseudomonas aeruginosa; details: 5 mM cluster, 24 h, 30 °C, LB medium, compared to glucose-bearing cluster 13 or absence of cluster
Description: The P. aeruginosa adherence assay was performed in 24 well microplates. Biofilms were obtained after 24 h of incubation at 30 °C in LB medium alone or in the presence or galactose, fucose, or glucose (control)-substituted trivalent clusters and stained with crystal violet (CV).
All reagents were commercial and used without further purification. Solvents were distilled from CaH2.
(§1) Reactions under microwave activation were performed using a Biotage Initiator system. NMR spectra were recorded at 293 K, unless otherwise stated, using a 300 or 400 or 500 MHz spectrometer.
Shifts are referenced relative to deuterated solvent residual peaks. Complete signal assignments from 1D and 2D NMR spectroscopy were based on COSY, HSQC, and HMBC correlations. High-resolution (HR-ESI- QToF) mass spectra were recorded using a Bruker MicroToF-Q II XL spectrometer. Thin-layer chromatography (TLC) was carried out on aluminum sheets coated with silica gel 60 F254 (Merck). […] IR spectra were recorded on a Shimadzu FTIR-8400S IR spectrophotometer and n are expressed in cm-1. NMR spectra were recorded on a Bruker DRX (1H at 300 or 400 MHz, 13C at 75 or 100 MHz) or on a Bruker AV500 spectrometer (1H at 500 MHz, 13C at 125 MHz). HRMS were recorded in electrospray ionization mode on a micro q-tof Micromass in strument (3000 V) with an internal lock mass (H3PO4) and an external lock mass (Leu- […]

lecA [1] = biological target: T1, lecA (Pseudomonas aeruginosa, UniProt Q05097); experiment: Dynamic light scattering (DLS), aggregation of lecA
Description: Dynamic light scattering experiments (DLS) were performed on the trivalent and divalent galactose-substituted clusters 1, 16 and 17, as well as the glucose-substituted cluster 13 as a negative control. […] The inability of these systems to efficiently aggregate lectins is in stark contrast to the hexavalent benzene cluster, which may be attributed to differences in rigidity and hydrophobicity between the two systems. It thus appears that the direct diaryl sulfide bridge presents a more optimal degree of semi-rigidity.
Figure 2 Dynamic light scattering experiments of bis-D-galactosyl proparyl cluster 16 with lecA. Distribution by mass for lecA + buffer (left) and lecA + 16 (200 μM, right) at 3 minute intervals. Additional experiments can be found in Supporting Information File 1.

lecA [2] = biological target: T1, lecA; experiment: Isothermal titration calorimetry (ITC), binding to lecA; details: for ΔG / ΔH / β/N (improvement in affinity relative to the methyl glycoside, divided by the valency) / −TΔS / n (stoichiometry): T = 298 K; for n (stoichiometry): glycocluster ligands per monomer of lectin
Description: The affinities of the designed glycoconjugates with lecA and lecB were determined by isothermal titration calorimetry (ITC) by addition of the ligands to a solution of lectin (Figure 3). Dissociation constants (Kd) and thermodynamic parameters (ΔG, ΔH, −TΔS) are listed in Table 1, together with the experimental binding stoichiometry (n), defined as the number of glycocluster ligands per monomer of lectin. […]
Isothermal titration microcalorimetry (ITC):
Recombinant lyophilized lecA and lecB were dissolved in buffer (100 mM Tris-HCl pH 7.5, 6 µM CaCl2,) and degassed. The same procedure was applied for lecB with a different buffer (20mM Tris-HCl pH 7.54 100mM NaCl 100µM CaCl2). Protein concentration varied between 50 and 120 µM depending on the ligand affinity. Carbohydrate ligands were dissolved directly into the same buffer, degassed, and placed in the injection syringe. ITC was performed using a VP-ITC MicroCalorimeter from MicroCal Incorporated. lecA was placed into the 1.4478 mL sample cell, at 25°C. Titration was performed with 10 µL injections of carbohydrate ligands every 300 s. Data were fitted using MicroCal Origin 7 software according to standard procedures. Fitted data yielded the stoichiometry (n), the association constant (Ka), and the enthalpy of binding (∆H). Other thermodynamic parameters (i.e., changes in free energy ∆G and entropy ∆S) were calculated from the equation ∆G = ∆H - T∆S = -[…] in which T is the absolute […]
temperature and R = 8.314 Jmol-1K-1. […]

PAO1 = PAO1 growth inhibition control test; format: cell-based, Pseudomonas aeruginosa; details: PAO1 in the presence of clusters
Description: To check that differences observed were not due to bacterial growth defect in the presence of clusters, a growth inhibition control experiment was performed (Figure 4C). […] A) Biofilm growth assay in LB medium. B) Statistical analysis (above, n = 5, duplicate UV measurements) of ethanol-solubilized biofilm recovered from each well (below). C) PAO1 growth inhibition control test.

lecB = lecB (Pseudomonas aeruginosa, UniProt Q9HYN5); experiment: Isothermal titration calorimetry (ITC), binding to lecB
Description: The affinities of the designed glycoconjugates with lecA and lecB were determined by isothermal titration calorimetry (ITC) by addition of the ligands to a solution of lectin (Figure 3). Dissociation constants (Kd) and thermodynamic parameters (ΔG, ΔH, −TΔS) are listed in Table 1, together with the experimental binding stoichiometry (n), defined as the number of glycocluster ligands per monomer of lectin.
The observed β/N values in Table 1, which reflect the relative affinity per unit sugar, are 29 for the trivalent cluster and in the range of 12 for the bivalent clusters. These values most likely reflect sub-site binding by the heterocyclic rings. […] These clusters thus represent a readily accessible, highly soluble, and convenient tool for the investigation of the role of lecA and lecB in the formation of biofilms by Pseudomonas aeruginosa. […]
as §1
Shifts are referenced relative to deuterated solvent residual peaks. […] High-resolution (HR-ESI- QToF) mass spectra were recorded using a Bruker MicroToF-Q II XL spectrometer. […] IR spectra were recorded on a Shimadzu FTIR-8400S IR spectrophotometer and n are expressed in cm-1. […]

T1 sequence (Q05097 2-122): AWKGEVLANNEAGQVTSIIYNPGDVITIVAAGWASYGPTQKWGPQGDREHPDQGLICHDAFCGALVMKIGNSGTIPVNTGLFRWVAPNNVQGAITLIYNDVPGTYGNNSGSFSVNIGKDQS
Chain of lecB (Q9HYN5 entry or part of it): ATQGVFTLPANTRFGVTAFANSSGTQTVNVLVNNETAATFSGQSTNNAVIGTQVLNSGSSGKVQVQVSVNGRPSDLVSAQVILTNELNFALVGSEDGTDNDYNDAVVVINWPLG

| Compound | biofilm formation (PAO1 biofilm) | aggregation of lecA (lecA [1]) | Kd (lecA [2]) | ΔG (lecA [2]; ITC) | ΔH (lecA [2]; ITC) | β/N (improvement in affinity relative to the methyl glycoside, divided by the valency) (lecA [2]; ITC) | −TΔS (lecA [2]; ITC) | n (stoichiometry) (lecA [2]; ITC) | bacterial growth defect (PAO1) | affinity for the lectin (in words) (lecA [2]; ITC, negative control) | Kd (lecB) |
| --- | --- | --- | --- | --- | --- | --- | --- | --- | --- | --- | --- |
| OC[C@H]1O[C@@H](n2cc(CSc3nc(SCc4cn([C@@H]5O[C@H](CO)[C@H](O)[C@H](O)[C@H]5O)nn4)nc(SCc4cn([C@@H]5O[C@H](CO)[C@H](O)[C@H](O)[C@H]5O)nn4)n3)nn2)[C@H](O)[C@@H](O)[C@H]1O [compound 1, 2,4,6-tris(1-(β-D-galactopyranosyl)triazol-4-ylmethylthio)-1,3,5-triazine] | statistically significant reduction in biofilm formation | only the divalent bis-D-Gal propargyl cluster 16 induces rapid aggregation of lecA | 1.09 µM | -8.15 kcal/mol | -15.8 kcal/mol | 29 | 7.62 kcal/mol | 0.31 | No growth defect was observed | – | – |
| OC[C@H]1O[C@@H](n2cc(CSc3nc(SCc4cn([C@@H]5O[C@H](CO)[C@@H](O)[C@H](O)[C@H]5O)nn4)nc(SCc4cn([C@@H]5O[C@H](CO)[C@@H](O)[C@H](O)[C@H]5O)nn4)n3)nn2)[C@H](O)[C@@H](O)[C@@H]1O [compound 13, 2,4,6-tris(1-(β-D-glucopyranosyl)triazol-4-ylmethylthio)-1,3,5-triazine] | – | only the divalent bis-D-Gal propargyl cluster 16 induces rapid aggregation of lecA | – | <0 kcal/mol | – | – | – | – | No growth defect was observed | no affinity for the lectin | – |
| C[C@@H]1O[C@H](n2cc(CSc3nc(SCc4cn([C@H]5O[C@@H](C)[C@@H](O)[C@@H](O)[C@@H]5O)nn4)nc(SCc4cn([C@H]5O[C@@H](C)[C@@H](O)[C@@H](O)[C@@H]5O)nn4)n3)nn2)[C@@H](O)[C@H](O)[C@@H]1O [compound 14, 2,4,6-tris(1-(β-L-fucopyranosyl)triazol-4-ylmethylthio)-1,3,5-triazine] | statistically significant reduction in biofilm formation | – | – | – | – | – | – | – | No growth defect was observed | – | 50 µM |
| C#CCSc1nc(SCc2cn([C@@H]3O[C@H](CO)[C@H](O)[C@H](O)[C@H]3O)nn2)nc(SCc2cn([C@@H]3O[C@H](CO)[C@H](O)[C@H](O)[C@H]3O)nn2)n1 [compound 16, 2,4-bis(1-(β-D-galactopyranosyl)triazol-4-ylmethylthio)-6-(prop-2-ynylthio)-1,3,5-triazine] | – | induces rapid aggregation of lecA | 4.4 µM | -7.29 kcal/mol | -11.4 kcal/mol | 11 | 4.11 kcal/mol | 0.79 | – | – | – |
| OC[C@H]1O[C@@H](n2cc(CSc3nc(SCc4cn([C@@H]5O[C@H](CO)[C@H](O)[C@H](O)[C@H]5O)nn4)nc(SCc4cn([C@@H]5O[C@H](CO)[C@@H](O)[C@H](O)[C@H]5O)nn4)n3)nn2)[C@H](O)[C@@H](O)[C@H]1O [compound 17, 2,4-bis(1-(β-D-galactopyranosyl)triazol-4-ylmethylthio)-6-(1-(β-D-glucopyranosyl)triazol-4-ylmethylthio)-1,3,5-triazine] | – | only the divalent bis-D-Gal propargyl cluster 16 induces rapid aggregation of lecA | 3.4 µM | -7.48 kcal/mol | -12.2 kcal/mol | 14 | 4.71 kcal/mol | 0.54 | – | – | – |
| CO[C@@H]1O[C@H](CO)[C@H](O)[C@H](O)[C@H]1O [β-D-GalOMe, methyl β-D-galactoside] | – | – | – | – | – | 1 | – | – | – | – | – |
